For data set [1] the following is noted: for Css Free drug Concentration (mass/volume) / Css Free drug Concentration (molarity): approximately 20% protein bound.
The next data set has as its system SARS-CoV-2. Description: microbe, parasite or virus in culture. The class given is cell-based. The following applies: for IC50: read-out: Antiviral: IC50; for IC90: read-out: Antiviral: IC90; for inhibition of SARS-CoV-2 infection: Vero E6 cell-based assay.
For data set [2], the target named is T1, histamine H2 receptor (Homo sapiens, UniProt P25021). The following applies: partial agonist.
T1 sequence (P25021 whole entry): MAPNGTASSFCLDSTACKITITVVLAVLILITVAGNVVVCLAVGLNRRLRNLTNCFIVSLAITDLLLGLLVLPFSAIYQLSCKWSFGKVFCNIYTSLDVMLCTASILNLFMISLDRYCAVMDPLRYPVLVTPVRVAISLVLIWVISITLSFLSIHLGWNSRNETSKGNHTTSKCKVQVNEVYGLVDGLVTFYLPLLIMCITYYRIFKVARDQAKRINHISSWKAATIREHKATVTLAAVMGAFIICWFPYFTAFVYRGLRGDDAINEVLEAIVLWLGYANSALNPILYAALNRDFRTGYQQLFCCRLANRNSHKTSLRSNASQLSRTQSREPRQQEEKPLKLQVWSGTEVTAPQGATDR
The test system of a further data set is COVID-19 patient. The conditions noted are these: one patient, 60 mg p.o. t.i.d. for 30 days, started day 8 of symptoms; anecdotal.
Data set [3] deals with T2, H2 (Homo sapiens, UniProt P25021). Description: biochemical. The following applies: affinity (Ki) for histamine H2 receptor. On the procedure:
Radioligand binding assays with human histamine receptors. Radioligand binding assays with human H1, H2, H3, and H4 receptors were conducted according to the NIMH PDSP assay protocol (https://pdsp.unc.edu/pdspweb/?site=assays) and published procedures ([Besnard et al., 2012]).

For data set [4], the system named is H2 in primary human neutrophils. The following applies: ref Reher et al., 2012, cited from earlier work.
For another data set, the system named is 318 known human GPCRs. The conditions noted are these: 10 microM final; threshold >3x basal; follow up studies. On the procedure:
(§1) Human G-coupled Protein Receptor genome (GPCRome) screening was carried out according to published procedure ([Kroeze et al., 2015]) with minor modifications. In brief, HTLA cells were subcultured into poly-L-lysine coated clear bottom 384-well white plates at a density of 6,000 cells/well in 40 ul of DMEM supplemented with 1% dialyzed FBS for overnight, transfected with 20 ng/well Tango constructs for 24 h, received drug stimulation (10 uM final) for another 24 h. Medium and drug solutions were removed and Bright-Glo Reagents (Promega) were added for luminescence counting. For concentration response assays, HTLA cells were transfected with Tango constructs for 24 h, plated in poly-L-Lysine coated clear bottom 384-well white plates at a density of 10,000 cells/well in 40 ul of DMEM supplemented with 1% dialyzed FBS for 6 h before receiving drugs for overnight stimulation. Plates were then counted as above.

In the next data set the target is bradykinin receptor B1 (Homo sapiens, UniProt P46663). The conditions noted are these: quadruplicate replicate. As for the experimental part:
as §1

Another data set concerns the target bradykinin receptor B2 (Homo sapiens, UniProt P30411). The conditions noted are these: quadruplicate replicate. As for the experimental part: as §1
A further data set concerns the target human sigma-2 (TMEM97) (Homo sapiens, UniProt Q5BJF2). The conditions noted are these: concentrations up to 10 μM. As for the experimental part:
Sigma-2 competition curves were performed in a similar manner, using Expi293 cells overexpressing the human sigma-2 (TMEM97) and using [^3H] DTG as the radioactive probe.

The next data set has as its target human sigma-1 receptor (Homo sapiens, UniProt Q99720). The conditions noted are these: concentrations up to 10 μM. As for the experimental part:
All reactions were performed in triplicate using a 96-well block. […] Data were analyzed using GraphPad Prism software.

Data set [5] has as its system H2 in primary human neutrophils. The following applies: ref Reher et al., 2012, cited from earlier work. This is another data set of the same source.
Data set [6] has as its system hospitalized COVID-19 patients. The conditions noted are these: ref Cheung et al., 2020, Shoaibi et al., Yeramaneni et al.; cited from earlier work.
The test system of data set [7] is H2 in primary human eosinophils. The following applies: ref Reher et al., 2012, cited from earlier work.
For data set [8], the target named is T2, H2. As to the kind of experiment: cell-based. On the procedure:
cAMP production was determined in transiently transfected HEK293T cells ([Stauch et al., 2019]) with minor modifications. In brief, HEK293 T cells were co-transfected with H2 and GloSensor cAMP reporter DNA (Promega) overnight and plated in poly-l-lysine coated clear bottom 384-well white plate at a density of 15,000 cells/well in 40 ul of DMEM supplemented with 1% dialyzed FBS for 6 h. Medium was removed and cells were loaded with 3 mM luciferin in drug buffer (20 ul/well, 1x HBSS, 20 mM HEPES, pH 7.40) for 30 min. Test compounds were prepared in the same drug buffer supplemented with 1 mg/ml BSA and added (20 ul/well at 2x) to cells. Luminescence was counted after 20 min and results were analyzed in Prism 8.4.

A further data set concerns human skin mast cells. The conditions noted are these: 10 μM pre-incubation; ref Lippert et al., 2004; cited from earlier work.
A further data set in a line: in vitro. The following applies: African green monkey.
Data set [9] has as its target T1, histamine H2 receptor. As to the kind of experiment: cell-based.
The target in data set [10] is histamine H2 receptor. The conditions noted are these: cited from earlier work.
Data set [11] can be described thus: MTT cytotoxicity assay in uninfected Vero E6 cells. The conditions noted are these: African green monkey, uninfected Vero E6 cells.
Another data set deals with Vero E6 cells. Description: MTT cytotoxicity assay in uninfected Vero E6 cells. The following applies: uninfected Vero E6, MTT. A general note: Tetrazolium dyes change colour on reduction, which living cells bring about.
Where [12] appears, read: Severe acute respiratory syndrome coronavirus 2, Vero C1008, Vero E6, 48 h, MOI 0.025.
The mark [13] stands for this setting: 40 mg tablet p.o. t.i.d., pK data reported by Lin et al. (1987).
Where [14] appears, read: 40 mg tablet p.o. t.i.d., pK data reported by Yeh et al. (1987).
[15] abbreviates: Severe acute respiratory syndrome coronavirus 2, Vero C1008, 48 h.

For orientation: IC90 means the point of the concentration-response curve where the effect stands at 90%. For orientation: Ki means the dissociation constant of the complex between target and ligand, obtained from inhibition or displacement. What is called EC50 is the concentration giving half of the maximal effect.

Structures are written as SMILES. In brackets after ≈: the same amount, converted by molar mass. Several values for one entry are separate records, joined by “and”; a condition that tells them apart may be missing. Equal entries are not always repeated. Where two headings read alike, the source gives them in different places.

T2 sequence (P25021 whole entry): as above
Sequence of bradykinin receptor B2 (P30411 whole entry): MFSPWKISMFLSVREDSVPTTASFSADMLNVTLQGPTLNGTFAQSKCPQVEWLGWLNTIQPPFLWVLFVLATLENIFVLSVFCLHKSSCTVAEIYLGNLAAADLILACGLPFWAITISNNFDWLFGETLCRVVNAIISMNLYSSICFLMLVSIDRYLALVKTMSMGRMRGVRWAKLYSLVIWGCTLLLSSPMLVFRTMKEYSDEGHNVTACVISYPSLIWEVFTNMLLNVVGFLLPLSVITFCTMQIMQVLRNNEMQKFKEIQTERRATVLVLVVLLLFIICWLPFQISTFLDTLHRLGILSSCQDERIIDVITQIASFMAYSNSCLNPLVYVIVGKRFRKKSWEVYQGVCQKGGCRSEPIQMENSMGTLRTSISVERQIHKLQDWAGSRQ
Sequence of human sigma-2 (TMEM97) (Q5BJF2 whole entry): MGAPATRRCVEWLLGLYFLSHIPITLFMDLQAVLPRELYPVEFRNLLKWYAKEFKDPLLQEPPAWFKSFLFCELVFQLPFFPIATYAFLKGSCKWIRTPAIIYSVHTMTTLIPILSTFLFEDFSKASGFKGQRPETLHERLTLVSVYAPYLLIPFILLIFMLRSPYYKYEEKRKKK
Sequence of human sigma-1 receptor (Q99720 whole entry): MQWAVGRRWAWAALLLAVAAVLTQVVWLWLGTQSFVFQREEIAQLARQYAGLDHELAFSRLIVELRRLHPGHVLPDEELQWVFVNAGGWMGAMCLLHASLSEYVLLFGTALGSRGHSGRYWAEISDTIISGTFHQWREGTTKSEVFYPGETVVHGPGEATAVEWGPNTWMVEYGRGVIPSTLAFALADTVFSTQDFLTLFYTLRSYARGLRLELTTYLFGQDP
Sequence of bradykinin receptor B1 (P46663 whole entry): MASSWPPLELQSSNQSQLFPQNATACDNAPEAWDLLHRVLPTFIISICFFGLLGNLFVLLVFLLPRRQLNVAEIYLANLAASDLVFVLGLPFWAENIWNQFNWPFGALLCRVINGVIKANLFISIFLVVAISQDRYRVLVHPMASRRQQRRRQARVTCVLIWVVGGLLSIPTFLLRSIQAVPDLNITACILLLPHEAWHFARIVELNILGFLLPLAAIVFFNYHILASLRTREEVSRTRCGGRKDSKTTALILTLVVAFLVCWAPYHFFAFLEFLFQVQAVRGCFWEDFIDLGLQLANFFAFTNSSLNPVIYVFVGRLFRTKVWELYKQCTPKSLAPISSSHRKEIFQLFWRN

On to `CN/C(=N/CCSCc1nc[nH]c1C)NC#N` [Cimetidine], for which the “Css Free drug Concentration (mass/volume)” value in [1] (200 mg tablet p.o. q.d.) turned out to be 140 µg/L. In data set [1] (300 mg tablet p.o. q.d.), the “Css Free drug Concentration (mass/volume)” value came to 180.1 µg/L and the “Css Free drug Concentration (molarity)” value worked out at 720 nM.
Turning to `NC(N)=Nc1nc(CSCCC(N)=NS(N)(=O)=O)cs1` [Famotidine], the IC50 in the data set on SARS-CoV-2 (setting [12]) is more than 100000 nM; in data set [4] (read-out: IC50 Neutrophil H2 O2- assay, Concentration (molarity)) it was 201 nM; in [5] (read-out: IC50 Neutrophil H2 cAMP assay, Concentration (molarity)) it was 24 nM; in data set [7] (read-out: IC50 Eosinophil H2 cAMP assay, Concentration (molarity)), 158 nM; on histamine H2 receptor [10] (read-out: IC50 Histamine H2, Concentration (molarity), ref Lin et al., 1987, 1991), 39 nM. Besides, the 90% effect concentration (IC90) with SARS-CoV-2 (setting [12]) is more than 100000 nM. Moreover, the “inhibition of SARS-CoV-2 infection” value in the data set on SARS-CoV-2 is reported as “no inhibition”. For the same molecule, the arrestin recruitment efficacy result on histamine H2 receptor [2] is given as “about 15 % that of histamine”. The “clinical symptoms after initiating treatment” value in the data set on COVID-19 patient is reported as “relief of symptoms overnight”. The inhibition constant (Ki) at H2 [3] is ~14 nM and 14 nM. Also, the “IC50 Neutrophil H2 O2- assay, Concentration (mass/volume)” value in data set [4] is 0.067 µg/mL (≈ 0.199 µM). Besides, the “agonist activity at GPCRs other than H2” value with 318 known human GPCRs is “no agonist activity”. In addition, the “activation of bradykinin receptor B1” value on bradykinin receptor B1 is “no activation”. Also, on bradykinin receptor B2, the “activation of bradykinin receptor B2” value is “no activation”. Moreover, the “displacement of radioligand probe, sigma-2” value at human sigma-2 (TMEM97) is recorded as “no detectable displacement”. The “displacement of radioligand probe, sigma-1” value at human sigma-1 receptor was “no detectable displacement”. Besides, in data set [5], the “IC50 Neutrophil H2 cAMP assay, Concentration (mass/volume)” value was 0.008 µg/mL (≈ 0.0237 µM). For the same molecule, the “effect in more recent retrospective studies” value in data set [6] was “no effect”. The “IC50 Eosinophil H2 cAMP assay, Concentration (mass/volume)” value in [7] was 0.0536 µg/mL (≈ 0.159 µM). For the same molecule, the EC50 on H2 [8] amounted to 33 nM; at histamine H2 receptor [9], 105 nM. Further, the “activity on H2 in the presence of histamine” value at H2 [8] (Figure 4B) was “antagonist activity”. The “inverse agonist activity, reduction of basal activity” value on H2 [8] (cAMP, H2) turned out to be 75%. In addition, in the data set with human skin mast cells, the “effect on histamine-induced cAMP increase” value is listed as “blocks histamine-induced cAMP increase”. Also, the CC50 in “in vitro” was more than 100000 nM. The “Css Free drug Concentration (mass/volume)” value in [1] (20 mg capsule p.o. b.i.d.) was determined as 29.4 µg/L; in data set [1] (20 mg capsule p.o. q.d.), 14.7 µg/L; in [1] (20 mg capsule p.o. t.i.d.) it was 44.2 µg/L; in [1] (20 mg tablet p.o. b.i.d.), 28.3 µg/L; in data set [1] (20 mg tablet p.o. q.d.), 14.2 µg/L; in data set [1] (20 mg tablet p.o. t.i.d.), 42.5 µg/L. Besides, the “Css Free drug Concentration (mass/volume)” value is 44.3 µg/L in [1] (setting [13]), 64.6 µg/L in data set [1] (setting [14]), 115.4 µg/L in [1] (60 mg tablet p.o. t.i.d.) and 1,032 μg/l in data set [1] (120 mg IV every 8 h). Also, the “Css Free drug Concentration (molarity)” value in data set [1] (20 mg capsule p.o. b.i.d.) worked out at 87 nM; in data set [1] (20 mg capsule p.o. q.d.), 44 nM; in [1] (20 mg capsule p.o. t.i.d.) it was 131 nM; in [1] (20 mg tablet p.o. b.i.d.) it was 84 nM; in data set [1] (20 mg tablet p.o. q.d.), 42 nM; in data set [1] (20 mg tablet p.o. t.i.d.) it was 126 nM. Also, the “Css Free drug Concentration (molarity)” value in [1] (setting [13]) was determined as 131 nM; in data set [1] (setting [14]), 192 nM; in data set [1] (60 mg tablet p.o. t.i.d.), 340 nM; in data set [1] (120 mg IV every 8 h), 874 nM. For the same molecule, the “Css Total Concentration (mass/volume)” value in data set [1] (20 mg tablet p.o. q.d.) is 53 nM. In addition, on histamine H2 receptor [10] (ref Lin et al., 1987, 1991), the “IC50 Histamine H2, Concentration (mass/volume)” value was 0.013 µg/mL (≈ 0.0385 µM).
Consider `CCN(CCO)CCCC(C)Nc1ccnc2cc(Cl)ccc12` (stereo not shown) [Hydroxychloroquine], for which, in the data set on SARS-CoV-2 (setting [15]), the IC50 stood at 1440 nM and the 90% effect concentration (IC90) stood at 3470 nM. For the same molecule, the “inhibition of SARS-CoV-2 infection” value in the data set with SARS-CoV-2 is “demonstrated antiviral activity”. The molecule further gave a CC50 at 48 h in data set [11] of more than 20000 nM. In the data set with Vero E6 cells, the “Cytotoxicity: CC10” value was 216 nM.
For the molecule `CCC(CC)COC(=O)[C@H](C)N[P@](=O)(OC[C@H]1O[C@@](C#N)(c2ccc3c(N)ncnn23)[C@H](O)[C@@H]1O)Oc1ccccc1` [Remdesivir], in the data set with SARS-CoV-2 (setting [15]), the IC50 was 966 nM and the concentration for an effect of 90% (IC90) came out at 1770 nM. The “inhibition of SARS-CoV-2 infection” value in the data set on SARS-CoV-2 is “demonstrated antiviral activity”. Moreover, the “Cytotoxicity: CC10” value in the data set with Vero E6 cells was more than 20000 nM. The molecule further yielded a CC50 in “in vitro” of more than 20000 nM.
As for `NCCc1c[nH]cn1` [histamine], the “stimulation of cAMP production” value at H2 [8] (N = 2) is on record as 20 fold of basal.

Source of the values: paper PMC8021898 (Frontiers in Pharmacology, 2021).
